According to patent US9233061B2 (AMOREPACIFIC CORPORATION, priority 2011, dated 2016):

Assay: Precipitation of caffeine at low temperature (4° C.)
Format: physicochemical
Settings: 3 days in a refrigerator (4° C.)

For `NC(=O)c1cccnc1` [niacinamide, Niacinamide], the “Amount of niacinamide necessary for inhibiting precipitation” value (shortened to “Amount … for inhibiting precipitation”) (caffeine content 1-3%) was 0.5-1 time based on caffeine, the “Amount … for inhibiting precipitation” value (caffeine content 3-5%) was 1-1.5 times based on caffeine and the “Amount … for inhibiting precipitation” value (caffeine content 5-10%) was 1-2 times based on caffeine.
